Experimental data as given in the supplement of paper PMC12406974.

Legend:
Assay in all cases: maximum observed lethal fraction; higher = more cell death
[1] = system: U2OS BCL2L12-KO
[2] = system: U2OS PTBP1-KO
[3] = system: U2OS BAX/BAK1 DKO
[4] = system: U2OS
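Also: FLICK assay: SYTOX Green fluorescence of dead cells tracked over time after drugging in 96-well plates, with total cell counts taken from Triton X-100 lysed wells.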

CC1(C)CCC(CN2CCN(c3ccc(C(=O)NS(=O)(=O)c4ccc(NCC5CCOCC5)c([N+](=O)[O-])c4)c(Oc4cnc5[nH]ccc5c4)c3)CC2)=C(c2ccc(Cl)cc2)C1 [ABT-199]
maximum observed lethal fraction
Settings | 0.1 µM | 0.316 µM | 1 µM | 3.16 µM | 10 µM | 31.6 µM | 100 µM
[1] | 0.0643 | 0.0609 | 0.063 | 0.0712 | 0.114 | 0.39 | 0.692
[2] | 0.0644 | 0.0635 | 0.0617 | 0.0671 | 0.0741 | 0.211 | 0.517
[3] | 0.0501 | 0.0536 | 0.0531 | 0.0558 | 0.0561 | 0.0846 | 0.0728
[4] | 0.0502 | 0.0518 | 0.0546 | 0.0609 | 0.0939 | 0.239 | 0.52

CC1(C)CCC(c2ccc(Cl)cc2)=C(CN2CCN(c3ccc(C(=O)NS(=O)(=O)c4ccc(N[C@H](CCN5CCOCC5)CSc5ccccc5)c(S(=O)(=O)C(F)(F)F)c4)cc3)CC2)C1 [ABT-263]
maximum observed lethal fraction
Settings | 0.1 µM | 0.316 µM | 1 µM | 3.16 µM | 10 µM | 31.6 µM | 100 µM
[1] | 0.0718 | 0.0885 | 0.121 | 0.225 | 0.26 | 0.821 | 1
[2] | 0.0713 | 0.0786 | 0.0982 | 0.131 | 0.192 | 0.771 | 1
[3] | 0.0556 | 0.0535 | 0.0545 | 0.0548 | 0.0634 | 0.172 | 0.43
[4] | 0.0623 | 0.0847 | 0.106 | 0.2 | 0.247 | 0.683 | 0.984

CN(C)CC[C@H](CSc1ccccc1)Nc1ccc(S(=O)(=O)NC(=O)c2ccc(N3CCN(Cc4ccccc4-c4ccc(Cl)cc4)CC3)cc2)cc1[N+](=O)[O-] [ABT-737]
maximum observed lethal fraction
Settings | 0.0316 µM | 0.1 µM | 0.316 µM | 1 µM | 3.16 µM | 10 µM | 31.6 µM
[1] | 0.0733 | 0.076 | 0.0912 | 0.127 | 0.28 | 0.596 | 0.84
[2] | 0.0704 | 0.0736 | 0.0737 | 0.0836 | 0.13 | 0.38 | 0.617
[3] | 0.0579 | 0.0557 | 0.0559 | 0.0569 | 0.0568 | 0.0722 | 0.082
[4] | 0.0571 | 0.0649 | 0.0818 | 0.115 | 0.189 | 0.462 | 0.788

CCN1CCN(Cc2ccc(Nc3ncc(F)c(-c4cc(F)c5nc(C)n(C(C)C)c5c4)n3)nc2)CC1 [Abemaciclib]
maximum observed lethal fraction
Settings | 0.01 µM | 0.0316 µM | 0.1 µM | 0.316 µM | 1 µM | 3.16 µM | 10 µM
[1] | 0.0701 | 0.071 | 0.073 | 0.0769 | 0.211 | 0.457 | 0.889
[2] | 0.0734 | 0.0787 | 0.081 | 0.0922 | 0.161 | 0.257 | 0.739
[3] | 0.0682 | 0.0681 | 0.0721 | 0.0802 | 0.0972 | 0.0964 | 0.339
[4] | 0.0681 | 0.0675 | 0.0675 | 0.0855 | 0.376 | 0.314 | 0.851

Cc1c2oc3c(C)ccc(C(=O)N[C@@H]4C(=O)N[C@H](C(C)C)C(=O)N5CCC[C@H]5C(=O)N(C)CC(=O)N(C)[C@@H](C(C)C)C(=O)O[C@@H]4C)c3nc-2c(C(=O)N[C@@H]2C(=O)N[C@H](C(C)C)C(=O)N3CCC[C@H]3C(=O)N(C)CC(=O)N(C)[C@@H](C(C)C)C(=O)O[C@@H]2C)c(N)c1=O [Actinomycin-D]
maximum observed lethal fraction
Settings | 0.001 µM | 0.00316 µM | 0.01 µM | 0.0316 µM | 0.1 µM | 0.316 µM | 1 µM
[1] | 0.101 | 0.199 | 0.648 | 0.35 | 0.254 | 0.406 | 0.377
[2] | 0.0967 | 0.164 | 0.311 | 0.206 | 0.243 | 0.368 | 0.328
[3] | 0.0757 | 0.0754 | 0.0792 | 0.088 | 0.0799 | 0.0933 | 0.0822
[4] | 0.0789 | 0.0968 | 0.505 | 0.545 | 0.4 | 0.637 | 0.578

COc1ccc(C[C@H]2NC[C@H](O)[C@H]2OC(C)=O)cc1 [Anisomycin]
maximum observed lethal fraction
Settings | 0.316 µM | 1 µM | 3.16 µM | 10 µM | 31.6 µM | 100 µM | 316 µM
[1] | 0.218 | 0.159 | 0.181 | 0.32 | 0.353 | 0.387 | 0.444
[2] | 0.174 | 0.177 | 0.239 | 0.337 | 0.426 | 0.403 | 0.408
[3] | 0.114 | 0.119 | 0.103 | 0.111 | 0.121 | 0.109 | 0.107
[4] | 0.277 | 0.456 | 0.711 | 0.845 | 0.888 | 0.879 | 0.903

CC(C)C[C@H](NC(=O)[C@H](Cc1ccccc1)NC(=O)c1cnccn1)B(O)O [Bortezomib]
maximum observed lethal fraction
Settings | 0.001 µM | 0.00316 µM | 0.01 µM | 0.0316 µM | 0.1 µM | 0.316 µM | 1 µM
[1] | 0.0699 | 0.0922 | 0.345 | 0.8 | 0.791 | 0.889 | 0.904
[2] | 0.0725 | 0.108 | 0.418 | 0.637 | 0.731 | 0.791 | 0.82
[3] | 0.059 | 0.0694 | 0.096 | 0.27 | 0.378 | 0.387 | 0.443
[4] | 0.0526 | 0.193 | 0.757 | 0.865 | 0.9 | 0.904 | 0.917
